Data taken from patent publication US6998413B1, “Treatment of neoplasms with yujungamycins” (priority 1999, dated 2006).
“Also recorded” adds a separate entry of the source.

How the values were obtained:
[1] = system: Poly [dA] Poly [dT]; assay: Alkylation of DNA by reduced PBIs; format: biochemical; details: reduced PBI (H2, Pd on carbon), pH 7.4 tris buffer, 30° C., 24 h
Description: (§1) Alkylation of DNA by Reduced PBIs. To a mixture of 1–2 mg of DNA (poly[dA]. poly[dT], poly[dG]. poly[dC], poly[dA-dT]. poly[dT-dA]) in 2.0 mL of 0.05 M of pH 7.4 tris buffer and 2 mg of Pd on carbon was added a five-to-one base pair equivalent amount of the PBI dissolved in 0.5 mL of dimethylsulfoxide. The resulting solution was degassed under argon for 30 min., after which the mixture was purged with H2 for 10 min. The solution was then purged with argon for 10 min. and the placed in a 30° C. bath for 24 h. The reaction was opened to the air and the catalyst was removed with a Millex-PF […] syringe filter. The filtrate was adjusted to 0.3M acetate with a 3M stock solution of pH 5.1 acetate and the diluted with two volumes of ethanol. The mixture was chilled at −20° C. for 12 h and the DNA pellet collected by centrifuging at 12,000 g for 20 min. The pellet was redissolved in water and then precipitated and centrifuged again. The resulting pellet was suspended in ethanol, centrifuged, and dried.

[2] = system: Poly [dG] Poly [dC]; assay: Alkylation of DNA by reduced PBIs; format: biochemical; details: reduced PBI (H2, Pd on carbon), pH 7.4 tris buffer, 30° C., 24 h
Description: as §1

[3] = system: DT-diaphorase; assay: DT-Diaphorase reduction kinetics; format: biochemical; details: pH 7.4 tris.HCl, anaerobic, 30° C., 0.3 mM NADH, 14.5 nM enzyme active sites
Description: DT-Diaphorase Reduction Kinetics Studies. Kinetic studies were carried out in 0.05 M pH 7.4 tris.HCl buffer, under anaerobic conditions, employing Thunberg cuvettes. A 2 mM stock solution of the appropriate PBI or APBI was prepared in dimethyl sulfoxide (DMSO). To the top port was added the quinone stock and to the bottom port was added DT-diaphorase and NADH in the tris buffer. The top and bottom ports were purged with argon for 20 minutes and equilibrated to 30° C. The ports were then mixed and the reaction followed at 296 nm for 25 minutes to obtain initial rates. The concentrations upon after mixing were 0.3 mM NADH, 1 to 20×10^-5 M quinone, and 14.5 nM (based on flavin) of enzyme active sites. The value of Δε was calculated from the initial and final absorbance values for complete quinone reduction, usual value for Δε is 6000 to 8000 M−1 cm−1. The value of Δε was used to calculate Vmax in M sec-1. The results were fitted to a Lineweaver-Burke plot from which kcat/Km values were calculated based on 14.5 nM of active sites.

[4] = system: Human tumor cells; assay: Hollow fiber assay (in vivo screen, National Cancer Institute); details: for Total Score (hollow fiber score): 12 cell lines × 2 sites × 2 doses, highest possible score 96; for Intraperitonal Score: fibers implanted intraperitoneally; for Intraperitonal Score / Subcutaneous Score: IP dosing QD×4, high and low dose, score of two per test with % T/C of 50 or less; for Subcutaneous Score: fibers implanted subcutaneously; for Cancer cell line types sensitive: hollow fiber assay
Description: Hollow fiber assays are carried out in the following way. Human tumor cells are cultivated in polyvinylidene fluoride hollow fibers, and a sample of each cell line is implanted into each of two physiological compartments (intraperitoneally and subcutaneously). Mice are treated with either a high or a low dose using a QD×4 schedule (four daily treatments) administered intraperitoneally. Altogether, twelve cell lines are studied resulting in 48 possible test combinations (12 cell lines×2 sites×2 doses). […] These compounds are covered by two patents. (Skibo, E. B. and Islam, I. Synthesis and Elucidation of Azamitosene and Iminoazamitosene. U.S. Pat. No. 5,015,742 1991; Skibo, E. B., Islam, I. and Alberts, D. S., Antineoplastic Agents and Methods of Using the Same. U.S. Pat. No. 5,246,955, 1993).

[5] = system: cancer cell lines; assay: Cytotoxicity (−log LC50) against cancer cell lines by cancer type; format: cell-based; details: for cytotoxicity (in words): cancer cell lines, FIG. 2 and FIG. 4
Description: Each −log LC50 value is the average of up to eight values.
FIG. 4. illustrates the plots of −Log LC50 versus cancer type for S(−)-1, 2, 3. Each cancer type represents the average of six to eight different cancer cell lines.

[6] = system: B-16 melanoma; assay: B-16 melanoma model (syngraft) in C57/bl mice; format: in vivo; details: 1 and 3 mg/Kg IP on days 1, 5, and 9 after tumor implantation into front flank muscle
Description: These compounds were studied at two dose levels: 1 and 3 mg/Kg IP on days 1, 5, and 9 after tumor implantation into the front flank muscle. Shown in the bar graph is the area under the tumor versus time curve plotted against dose for each enantiomer.

| Compound | Percentages of PBI Incorporation into DNA [1] [%] | Percentages of PBI Incorporation into DNA [2] [%] | Vmax [3] [nM/s] | Total Score (hollow fiber score) [4] | Intraperitonal Score [4] | Subcutaneous Score [4] | other results |
| --- | --- | --- | --- | --- | --- | --- | --- |
| 3-Carbamido-6-aziridinyl-2,3-dihydro-7-methyl-1H-pyrrolo[1,2-a]benzimidazole-5,8-dione [R(+)-C] | 31 | 17 | 39.3 | – | – | – | – |
| CC(=O)OC1CCN2C1=NC1C(=O)C(N3CC3)=C(C)C(=O)C12 (centres unmarked) [PBI-A] | – | – | – | 48 | 40 | 8 | Cancer cell line types sensitive [4]: melanoma, NSC lung cancer, breast cancer, and ovarian cancer; activity in the hollow fiber assay / in vivo [4]: active in the hollow fiber assay |
| 3-Amino-6-azindinyl-2,3-dihydro-7-methyl-1H-pyrrolo[1,2-a]benzimidazole-5,8-dione [S(−)-B] | – | – | – | – | – | – | Percentages of PBI Incorporation into DNA ([1]; listed as S(−)−B): 186%; Percentages of PBI Incorporation into DNA ([2]; listed as S(−)−B): 52% |
| 3-Amino-6-azindinyl-2,3-dihydro-7-methyl-1H-pyrrolo[1,2-a]benzimidazole-5,8-dione [R(+)-B] | – | – | 14.6 | – | – | – | Percentages of PBI Incorporation into DNA ([1]; listed as R(+)−B): 60%; Percentages of PBI Incorporation into DNA ([2]; listed as R(+)−B): 105% |
| 3-Amino-6-azindinyl-2,3-dihydro-7-methyl-1H-pyrrolo[1,2-a]benzimidazole-5,8-dione [Yujungamycin B] | – | – | – | – | – | – | cytotoxicity (in words) [5]: high potency; cytotoxicity (in words) ([5]; listed as 2): high cytotoxicity against non-small-cell lung, central nervous system, melanoma, ovarian, and renal cancers; change in cytotoxicity, 3-hydroxy changed to 3-amino ([5]; relative to the 3-hydroxy derivative): ˜million-fold change in cytotoxicity |
| CC(=O)NC1CCn2c1nc1c2C(=O)C(C)=C(N2CC2)C1=O (stereo not drawn) [S(−)-A] | 17.4 | 6.6 | 47.6 | 52 | 38 | 14 | activity in B-16 melanoma model (area under the tumor versus time curve) ([6]; listed as S(−) Yujungamycin A): failed to show much difference in activity between the enantiomers; also recorded: no apparent differences between the enantiomers; activity in B-16 melanoma model (area under the tumor versus time curve) ([6]; listed as S(−)-Yujungamycin A): activity |
| 3-Carbamido-6-aziridinyl-2,3-dihydro-7-methyl-1H-pyrrolo[1,2-a]benzimidazole-5,8-dione [S(−)-C] | 70 | 12.4 | 21.8 | – | – | – | – |
| CC1=C(N2CC2)C(=O)c2nc3n(c2C1=O)CCC3OC(N)=O (centres unmarked) [PBI-B] | – | – | – | 30 | 24 | 6 | Cancer cell line types sensitive [4]: melanoma, NSC lung cancer, breast cancer, and ovarian cancer; activity in the hollow fiber assay / in vivo [4]: active in the hollow fiber assay |
